Results: PubChem BioAssay AID1963872 (Molecular Pharmacology Branch, DTP, NCI, 2024)

Tested on: KRAS patient-derived spheroids with HUVEC/MSC, viability
Experiment: Anticancer human tumor 519858-162-T-J1-PDC patient-derived colon adenocarcinoma cell line growth inhibition [KRAS2]
Conditions: for IC50: curve of first compound; for viability, T/C: stronger effect = lower value
From the text: Multicellular complex tumor spheroid response to RAS pathway inhibitors in combination with a targeted agents in patient-derived cell lines with oncogenic KRAS variants from multiple cancer types
A high-throughput screen of multi-cell type tumor spheroids was designed to identify active combinations of targeted small molecules and KRAS pathway inhibitors. Complex spheroids include a stromal component modeled by human endothelial cells (HUVEC) and fibroblasts modeled by human mesenchymal stem cells (MSCs). The concentration ranges selected for each drug and investigational agent were based upon clinically achievable concentrations if the clinical Cmax of the agent was known.
Compounds. The drugs and investigational agents: BI-3406 (NSC825286), BAY-293 (NSC824723), batoprotafib (TNO155; NSC825523), sotorasib (AMG 510; NSC818433), MRTX1257 (NSC819558), elimusertib (BAY 1895344; NSC800525), molibresib (GSK525762; NSC774829), temuterkib (LY3214996; NSC803410), venetoclax (NSC766270), alisertib (NSC759677), olaparib (NSC753686), talazoparib (NSC767125), erdafitinib (NSC781556), ipatasertib (NSC767898), cabozantinib (NSC761068), nintedanib (NSC756659), abemaciclib (NSC768073), docetaxel (NSC628503), trametinib (NSC758246), and sapanisertib (NSC764658) were obtained from the National Cancer Institute (NCI) Developmental Therapeutics Program Chemical Repository. The FDA-approved anticancer drug set is available from the Developmental Therapeutics Program. […] The stock solutions were prepared in dimethyl sulfoxide (DMSO, Sigma-Aldrich, St. Louis, MO, cat. D2650) at 800-fold the tested concentration and stored at -70 degrees C prior to their use. All drugs and investigational agents were tested over a range starting from a high concentration at or near the clinical Cmax and decreasing in half-log increments. If the clinical Cmax for an agent had not been determined, the highest concentration tested was 10 microM.
Cell Culture. All cells were maintained in an incubator at 37 degrees C and 5% CO2 with 95% humidity. The PDC lines were cultured according to standard operating procedures established by the NCI PDMR (https://pdmr.cancer.gov/sops/default.htm). Briefly, all PDCs were thawed and cultured in Matrigel-coated flasks prepared with a working solution of 1X Ham's F-12 nutrient mix, without supplementation (Invitrogen, Waltham, MA, cat. 11765054), 100 U/mL penicillin-streptomycin (Invitrogen, cat. 15140122), and 2.5% Matrigel (Corning Inc., Corning, NY, cat. 354248) for the first three passages. All PDCs were cultured in complete DMEM/F-12 media containing advanced DMEM/F-12 (Invitrogen, cat. 12634028), 4.9% defined fetal bovine serum, heat inactivated (HyClone Laboratories Inc., Logan, UT, cat. SH30070.03HI), 389 ng/mL hydrocortisone (Sigma-Aldrich, cat. H4001), 9.7 ng/mL human EGF recombinant protein (Invitrogen, cat. PHG0313), 23.4 microg/mL adenine (Sigma-Aldrich, cat. A2786), 97.3 U/mL penicillin-streptomycin (Invitrogen, cat. 15140122), 1.9 mM L-glutamine (Invitrogen, cat. 25030081), and 9.7 microM Y-27632 dihydrochloride (Tocris Bioscience, Bristol, United Kingdom, cat. 1254). The PDCs were cultured in complete DMEM/F12 media without 9.7 microM Y-27632 dihydrochloride for at least two passages prior to the screen. The established cell line HOP-62 was cultured in RPMI 1640 medium, HEPES (Invitrogen, cat. 22400105) with 10% defined fetal bovine serum (HyClone Laboratories Inc., cat. SH30070.03) and 2 mM L-glutamine (Invitrogen, cat. 25030081). The pooled donor HUVEC were cultured in endothelial cell growth medium 2 (PromoCell, Heidelberg, Germany, cat. C-22011) and the hMSC were cultured in mesenchymal stem cell growth medium 2 (PromoCell, cat. C-28009). For all experiments, HUVEC and hMSC were used at passages </=5, while the malignant cell lines were used at passages </=15. […]

[1] = second compound 0.1 µM, first compound 0.0316 µM
[2] = second compound 0.1 µM, first compound 0.1 µM
[3] = second compound 0.1 µM, first compound 0.316 µM
[4] = second compound 0.1 µM, first compound 1 µM
[5] = second compound 0.1 µM, first compound 3.16 µM
[6] = second compound 0.1 µM, first compound 10 µM
[7] = second compound 0.316 µM, first compound 0.0316 µM
[8] = second compound 0.316 µM, first compound 0.1 µM
[9] = second compound 0.316 µM, first compound 0.316 µM
[10] = second compound 0.316 µM, first compound 1 µM
[11] = second compound 0.316 µM, first compound 3.16 µM
[12] = second compound 0.316 µM, first compound 10 µM
[13] = second compound 1 µM, first compound 0.0316 µM
[14] = second compound 1 µM, first compound 0.1 µM
[15] = second compound 1 µM, first compound 0.316 µM
[16] = second compound 1 µM, first compound 1 µM
[17] = second compound 1 µM, first compound 3.16 µM
[18] = second compound 1 µM, first compound 10 µM
[19] = second compound 3.16 µM, first compound 0.0316 µM
[20] = second compound 3.16 µM, first compound 0.1 µM
[21] = second compound 3.16 µM, first compound 0.316 µM
[22] = second compound 3.16 µM, first compound 1 µM
[23] = second compound 3.16 µM, first compound 3.16 µM
[24] = second compound 3.16 µM, first compound 10 µM
[25] = second compound 10 µM, first compound 0.0316 µM
[26] = second compound 10 µM, first compound 0.1 µM
[27] = second compound 10 µM, first compound 0.316 µM
[28] = second compound 10 µM, first compound 1 µM
[29] = second compound 10 µM, first compound 3.16 µM
[30] = second compound 10 µM, first compound 10 µM
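Note: compound exposure lasted seven days before readout.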
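Throughout, for viability, T/C: 100% = DMSO vehicle control viability.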

Compound	IC50 (second compound 0.1 µM)	IC50 (second compound 0.316 µM)	IC50 (second compound 1 µM)	IC50 (second compound 3.16 µM)	IC50 (second compound 10 µM)	viability, T/C [1]	viability, T/C [2]	viability, T/C [3]	viability, T/C [4]	viability, T/C [5]	viability, T/C [6]	viability, T/C [7]	viability, T/C [8]	viability, T/C [9]	viability, T/C [10]	viability, T/C [11]	viability, T/C [12]	viability, T/C [13]	viability, T/C [14]	viability, T/C [15]	other results
CC(C)NCC(C(=O)N1CCN(c2ncnc3c2C(C)CC3O)CC1)c1ccc(Cl)cc1 (stereo not given) + CC1OCC2(CCN(c3cnc(Sc4ccnc(N)c4Cl)c(N)n3)CC2)C1N	> 10 µM	> 10 µM	> 10 µM	> 10 µM	> 10 µM	83.1%	84.9%	54.9%	61.9%	64%	88.8%	93%	55.3%	55.9%	44%	60.1%	70.9%	77%	71.9%	58.7%	viability, T/C [16]: 62%; viability, T/C [17]: 59.2%; viability, T/C [18]: 69.3%; viability, T/C [19]: 59.7%; viability, T/C [20]: 70.9%; viability, T/C [21]: 56.1%; viability, T/C [22]: 55.2%; viability, T/C [23]: 51.8%; viability, T/C [24]: 61%; viability, T/C [25]: 69.5%; viability, T/C [26]: 56.3%; viability, T/C [27]: 65.9%; viability, T/C [28]: 66.1%; viability, T/C [29]: 68.9%; viability, T/C [30]: 56.4%
CC1OCC2(CCN(c3cnc(Sc4ccnc(N)c4Cl)c(N)n3)CC2)C1N (stereo not given) + CNCc1ccccc1-c1csc(C(C)Nc2nc(C)nc3cc(OC)c(OC)cc23)c1	> 10 µM	> 10 µM	> 10 µM	0.0982 µM	< 0.0316 µM	97.1%	99.2%	85.4%	59.3%	54%	60.4%	80.6%	92%	68%	60.8%	69.7%	58.9%	72.9%	83.5%	77.3%	viability, T/C [16]: 50.3%; viability, T/C [17]: 35.3%; viability, T/C [18]: 66%; viability, T/C [19]: 66.6%; viability, T/C [20]: 53.9%; viability, T/C [21]: 36.1%; viability, T/C [22]: 43.1%; viability, T/C [23]: 42.7%; viability, T/C [24]: 41.2%; viability, T/C [25]: 10.2%; viability, T/C [26]: 34.6%; viability, T/C [27]: 0.2%; viability, T/C [28]: 0.15%; viability, T/C [29]: 6.03%; viability, T/C [30]: 13.6%
